Measured values: article PMC8954769, “Development of an LC-MS/MS Method for ARV-110, a PROTAC Molecule, and Applications to Pharmacokinetic Studies” (Molecules, 2022)
Values belong to the compound of their own block, whether it stands above or below them.

Columns and labels:
[1] = In vitro plasma stability, rat; format: in vitro ADME; details: 37 °C, incubation 4 h, read-out: T1/2 in plasma
Protocol: (§1) The stabilities of ARV-110 in the hepatic microsomal fraction and plasma were investigated for three species (human, rat, and mouse). For the microsomal stability study, a reaction mixture containing hepatic microsomes (protein concentration, 0.5 mg/mL) and 1 mM NADPH in phosphate buffer (pH 7.4) was pre-incubated in a thermomixer (5 min, 37 °C, 200 rpm). To initiate the metabolic reaction, 5 μL of ARV-110 in methanol (100 μM) was added to the pre-incubated mixture to obtain a final ARV-110 concentration of 1 μM. The metabolic reactions of buspirone and verapamil were conducted simultaneously as positive controls. For plasma stability measurements, 5 μL of ARV-110 in methanol (100 μM) was added to pre-warmed blank plasma to obtain a final ARV-110 concentration of 1 μM. Procaine was used to control plasma stability. The temperature was maintained and agitation was continued throughout the reaction, and sampling was conducted at predetermined time points (0 (beginning of the reaction), 15; 30; 60; 120; […] min). For the microsomal and plasma stability measurements, the reaction was conducted for 120 and 240 min, respectively. […] The elimination rate constant (ke) was determined as the slope of the linear regression between the log of the percentage of analyte remaining and the incubation time. […]

[2] = Pharmacokinetic study in mice (IV and PO); format: in vivo, ICR mice; details: mouse; for bioavailability: oral 5 mg/kg vs IV 2 mg/kg, after dose normalization
Protocol: (§2) The validated LC-MS/MS method was applied to determine ARV-110 in pharmacokinetic studies in rats and mice. Animal studies were approved in advance by the Institutional Animal Care and Use Committee of Chungnam National University (202103A-CNU-053; Daejeon, Republic of Korea). Male Sprague Dawley (SD) rats (7 weeks old, 210–251 g) and male ICR mice (6 weeks old, 25–32 g) were purchased from Orient Bio Inc. (Seongnam, Republic of Korea). Their habitat was maintained under a 12 h light–dark cycle at a room temperature of 20–25 °C and a relative humidity of 40–60%. The animals had free access to food and water. Food fasting was started 14 or 4 h prior to drug administration to rats and mice, respectively. After drug administration, the animals were not given food or water for another 4 h.
The drug solution for the pharmacokinetic study in mice was prepared by dissolving ARV-110 in DMSO–PEG400–Cremophor EL–saline (5:30:2.5:62.5, v/v/v/v). The drug solution was administered via an IV bolus into the tail vein at a dose of 2 mg/kg or PO at a dose of 5 mg/kg. Blood samples (50 μL) were alternatively collected from the right retro-orbital plexus at 0.05 (IV only), 0.12, 0.5, 1, 2, 4, 8, 24, and 48 h after ARV-110 administration. Plasma was obtained by centrifuging the blood at 17,600× g for 5 min, and a 20 μL aliquot of plasma was stored at −20 °C until analysis.
(§3) For plasma sample preparation, 20 μL of rat or mouse plasma was added to 20 μL of IS solution (10 μg/mL) and 110 μL of acetonitrile. After vigorous mixing for 10 min, the mixture was centrifuged at 13,500 rpm for 10 min. An aliquot of the supernatant (100 μL) was collected for analysis. Cmax and Tmax were determined directly from the plasma concentration–time profile of each animal. To determine other pharmacokinetic parameters, the experimental data were analyzed using Phoenix® 8.2 software (Certara L.P., Princeton, NJ, USA), as described previously. All data are presented as mean ± SD.

[3] = tested on: AR; set-up: method as in PMID 31885879, PMID 30271980; details: various prostate cancer cell lines; cited from earlier work
[4] = set-up: method as in doi:10.1200/JCO.2020.38.15_suppl.3500; details: preliminary data from a phase I clinical trial; cited from earlier work
[5] = Hepatic microsomal metabolic stability, rat; format: in vitro ADME; details: 1 mM NADPH, 37 °C
Protocol: as §1

[6] = Pharmacokinetic study in rats (IV and PO); format: in vivo, Sprague Dawley (SD) rats; details: rat; for bioavailability: oral 5 mg/kg vs IV 2 mg/kg
Protocol: as §2
The drug solution for the pharmacokinetic study in rats was prepared by dissolving ARV-110 in a dimethyl sulfoxide (DMSO)–PEG400–Cremophor EL–saline (5:40:5:50, v/v/v/v). The drug solution was administered to the rats via a single IV bolus into the tail vein at a dose of 2 mg/kg or PO using a gavage needle at a dose of 5 mg/kg. Blood samples (100 μL) were collected from the jugular vein using heparinized syringes at 0.083 (IV only), 0.25, 0.5, 1, 2, 4, 6, 8, 24, and 48 h after ARV-110 administration. Plasma was collected from the blood by centrifugation, and a 20 μL aliquot of plasma was stored at −20 °C until analysis.
as §3

[7] = Hepatic microsomal metabolic stability, mouse; format: in vitro ADME; details: 1 mM NADPH, 37 °C
Protocol: as §1

[8] = Hepatic microsomal metabolic stability, human; format: in vitro ADME; details: 1 mM NADPH, 37 °C
Protocol: as §1

[9] = In vitro plasma stability, human; format: in vitro ADME; details: 37 °C, incubation 4 h, read-out: T1/2 in plasma
Protocol: as §1

[10] = In vitro plasma stability, mouse; format: in vitro ADME; details: 37 °C, incubation 4 h, read-out: T1/2 in plasma
Protocol: as §1

[11] = tested on: resistance models; set-up: method as in PMID 31885879, PMID 30271980; details: cited from earlier work
[12] = Stability of ARV-110 QC samples in mouse plasma under storage conditions; format: in vitro ADME
Protocol: (§4) The sample stability in rat and mouse plasma was evaluated at low and high QC concentrations. The short-term stability was evaluated at room temperature for 1 h, whereas the long-term stability was determined by assaying samples stored at −20 °C for 4 weeks. […] The freeze–thaw stability was tested by subjecting samples to three freeze–thaw cycles.

[13] = Stability of ARV-110 QC samples in rat plasma under storage conditions; format: in vitro ADME
Protocol: as §4

[14] = set-up: method as in PMID 34355087; details: cited from earlier work
[15] = male, ICR, in vivo, intravenous, 2 mg/kg
[16] = male, ICR, in vivo, oral, 5 mg/kg
[17] = male, Sprague Dawley, in vivo, intravenous, 2 mg/kg
[18] = male, Sprague Dawley, in vivo, oral, 5 mg/kg
[19] = 15 min at room temperature (25 °C), nominal 5 ng/mL
[20] = 15 min at room temperature (25 °C), nominal 2500 ng/mL
[21] = 1 h at room temperature (25 °C), nominal 5 ng/mL
[22] = 1 h at room temperature (25 °C), nominal 2500 ng/mL
[23] = 4 h on ice cold, nominal 5 ng/mL
[24] = 4 h on ice cold, nominal 2500 ng/mL
[25] = Freeze–thaw (3 cycles), nominal 5 ng/mL
[26] = Freeze–thaw (3 cycles), nominal 2500 ng/mL
[27] = Long term (4 weeks at −20 °C), nominal 5 ng/mL
[28] = Long term (4 weeks at −20 °C), nominal 2500 ng/mL
[29] = Processed sample (autosampler, 10 °C, 24 h), nominal 5 ng/mL
[30] = Processed sample (autosampler, 10 °C, 24 h), nominal 2500 ng/mL

half-life at 1 μM [1]: 0.733 h | AUC(0-inf) [2, 15]: 11300 ng·h/mL | AUC(0-t) [2, 15]: 10800 ng·h/mL | Cmax [2, 15]: 1260 ± 99 ng/mL | MRT [2, 15]: 13.1 ± 0.9 h | Tmax [2, 15]: 0.05 h | clearance [2, 15]: 3.02 mL/min/kg | half-life [2, 15]: 11.4 ± 0.51 h | Vd ([2]; male, ICR, in vivo, intravenous, 2 mg/kg, read-out: Vss): 2.37 ± 0.402 L/kg | AUC(0-inf) [2, 16]: 10700 ng·h/mL | AUC(0-t) [2, 16]: 9870 ± 1000 ng·h/mL | Cmax [2, 16]: 612 ± 88.4 ng/mL | MRT [2, 16]: 12.9 ± 0.84 h | Tmax [2, 16]: 4.8 ± 1.79 h | half-life [2, 16]: 14.6 ± 2.48 h | bioavailability ([2]; male, ICR, in vivo, 5 mg/kg, read-out: Bioavailability): 37.9% | bioavailability [2]: 37.89 ± 4.16% | half-life at 1 μM ([5]; pH 7.4, rat hepatic microsomes 0.5 mg/mL, read-out: elimination half-life (T1/2) in hepatic microsomes): 36.9 h | drug remaining after incubation for 2 h ([5]; rat hepatic microsomes 0.5 mg/mL, 1 μM): 96.60% | AUC(0-inf) [6, 17]: 4860 ± 381 ng·h/mL | AUC(0-t) [6, 17]: 4530 ± 288 ng·h/mL | Cmax [6, 17]: 2520 ± 292 ng/mL | MRT [6, 17]: 10.2 ± 0.48 h | Tmax [6, 17]: 0.083 h | clearance [6, 17]: 6.89 mL/min/kg | half-life [6, 17]: 13.6 ± 1.43 h | Vd ([6]; male, Sprague Dawley, in vivo, intravenous, 2 mg/kg, read-out: Vss): 5.78 ± 0.32 L/kg | AUC(0-inf) [6, 18]: 2890 ± 318 ng·h/mL | AUC(0-t) [6, 18]: 2420 ± 222 ng·h/mL | Cmax [6, 18]: 110 ± 9.2 ng/mL | MRT [6, 18]: 16.4 ± 1.16 h | Tmax [6, 18]: 5.5 ± 1.92 h | half-life [6, 18]: 17.7 ± 3.21 h | bioavailability ([6]; male, Sprague Dawley, in vivo, 5 mg/kg, read-out: Bioavailability): 23.8% | bioavailability [6]: 23.83 ± 2.62% | drug remaining after incubation for 2 h ([7]; mouse hepatic microsomes 0.5 mg/mL, 1 μM): 80.95% | half-life at 1 μM ([7]; pH 7.4, mouse hepatic microsomes 0.5 mg/mL, read-out: elimination half-life (T1/2) in hepatic microsomes): 6.92 h | drug remaining after incubation for 2 h ([8]; human hepatic microsomes 0.5 mg/mL, 1 μM): 92.07% | half-life at 1 μM ([8]; pH 7.4, human hepatic microsomes 0.5 mg/mL, read-out: elimination half-life (T1/2) in hepatic microsomes): 16.4 h | half-life at 1 μM [9]: 0.4 h | half-life at 1 μM [10]: 1.55 h | Stability in Mouse Plasma (%) [12, 19]: 99.43 ± 2.93% | Stability in Mouse Plasma (%) [12, 20]: 95.74 ± 5.74% | Stability in Mouse Plasma (%) [12, 21]: 83.70 ± 14.24% | Stability in Mouse Plasma (%) [12, 22]: 78.91 ± 4.93% | Stability in Mouse Plasma (%) [12, 23]: 93.01 ± 5.30% | Stability in Mouse Plasma (%) [12, 24]: 94.09 ± 5.23% | Stability in Mouse Plasma (%) [12, 25]: 104.0 ± 6.1% | Stability in Mouse Plasma (%) [12, 26]: 103.2 ± 4.1% | Stability in Mouse Plasma (%) [12, 27]: 97.97 ± 10.23% | Stability in Mouse Plasma (%) [12, 28]: 97.59 ± 3.78% | Stability in Mouse Plasma (%) [12, 29]: 98.77 ± 3.58% | Stability in Mouse Plasma (%) [12, 30]: 98.62 ± 3.54% | ARV-110 remained in QC samples ([12]; mouse plasma, short-term storage, 1 h at 25 °C): ~80% | Stability in Rat Plasma (%) [13, 19]: 100.6 ± 7.8% | Stability in Rat Plasma (%) [13, 20]: 96.99 ± 2.27% | Stability in Rat Plasma (%) [13, 21]: 68.73 ± 7.74% | Stability in Rat Plasma (%) [13, 22]: 68.82 ± 1.08% | Stability in Rat Plasma (%) [13, 23]: 92.20 ± 1.38% | Stability in Rat Plasma (%) [13, 24]: 92.21 ± 2.24% | Stability in Rat Plasma (%) [13, 25]: 103.2 ± 3.9% | Stability in Rat Plasma (%) [13, 26]: 101.8 ± 3.4% | Stability in Rat Plasma (%) [13, 27]: 100.6 ± 5.6% | Stability in Rat Plasma (%) [13, 28]: 100.5 ± 5.0% | Stability in Rat Plasma (%) [13, 29]: 99.60 ± 2.91% | Stability in Rat Plasma (%) [13, 30]: 102.6 ± 4.1% | ARV-110 remained in QC samples ([13]; rat plasma, short-term storage, 1 h at 25 °C): approximately 69%
Compound: N#Cc1ccc(O[C@H]2CC[C@H](NC(=O)c3ccc(N4CCC(CN5CCN(c6cc7c(cc6F)C(=O)N(C6CCC(=O)NC6=O)C7=O)CC5)CC4)nn3)CC2)cc1Cl (stereo partly drawn) [ARV-110, bavdegalutamide]
degradation of AR [3]: 95–98% | safety and tolerability in patients [4]: satisfactory safety and tolerability | reduction of tumor growth [11]: 70–100%

Compound: Nc1cccc2c1C(=O)N(C1CCC(=O)NC1=O)C2=O (stereo not drawn) [pomalidomide]
logP [14]: 0.01 | pKa [14]: 1.89
